# Measurements taken from patent US11000033B2, “Ketone or oxime compound, and herbicide” (NISSAN CHEMICAL CORPORATION, priority 2014, dated 2021).
# How the values were obtained:
# Format in all cases: in vivo
# Monochoria vaginalis = experiment: Test Example 1: herbicidal activity, application before weed generation in submerged conditions (symbol C); details: application herbicide amount 320 g/ha
# Method in brief: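 Compound emulsion was diluted to a set herbicide amount and applied to the water surface on the sowing day, into submerged (4 cm) alluvial-soil pots sown with mixed weed seeds and transplanted 2.5-leaf rice. Pots were held in a 25–30 °C greenhouse, and weeds were scored 0–5 by herbicidal ratio after 3 weeks.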
# Scirpus juncoides = experiment: Test Example 2: herbicidal activity, application during weed generation in submerged conditions (symbol B); details: Table 23; application herbicide amount 320 g/ha; grade 0-5 by criteria of Test Example 1
# Method in brief: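 Steps: fill pots with alluvial soil; add water to 4 cm depth; co-sow the three weeds; grow at 25° C. to 30° C. under glass; at 1–2 leaves, dose the floodwater with diluted emulsion; rate damage visually after 3 weeks.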
# Digitaria ciliaris = experiment: Test Example 4: herbicidal effect by soil treatment (symbol F); details: application herbicide amount 320 g/ha
# Method in brief: (§1)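 Seeds were sown in sterilized diluvial soil, covered with about 1.5 cm of soil, and the soil surface was sprayed with a water-diluted emulsion of the compound at a predetermined rate. Plants grew in a greenhouse at 25° C. to 30° C.; effects were scored visually 3 weeks after application.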
# [1] = tested on: Echinochloa crus-galli var. crus-galli; experiment: Test Example 4: herbicidal effect by soil treatment (symbol H); details: application herbicide amount 320 g/ha
# Method in brief: as §1
# Stellaria media = experiment: Test Example 4: herbicidal effect by soil treatment (symbol P); details: application herbicide amount 320 g/ha
# Method in brief: as §1
# beet = experiment: Test Example 4: effect on crop by soil treatment (symbol f); details: application herbicide amount 320 g/ha
# Method in brief: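 Steps: fill box with sterilized diluvial soil; sow seed spot-like; cover with ~1.5 cm soil; grow in greenhouse (25° C. to 30° C.).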
# [2] = tested on: Echinochloa crus-galli var. crus-galli; experiment: Test Example 5: herbicidal effect by foliage application, plastic box (symbol H); details: 320 g/ha, 3 weeks after application
# Method in brief: (§2)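 Seeds were sown in sterilized diluvial soil, covered with about 1.5 cm of soil and grown 14 days in a greenhouse at 25° C. to 30° C. An emulsifiable formulation diluted in water to a set rate was sprayed over foliage, and injury was scored 3 weeks later.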
# Alopecurus myosuroides = experiment: Test Example 5: herbicidal effect by foliage application, plastic box (symbol J); details: 320 g/ha, 3 weeks after application
# Method in brief: as §2
# Apera spica-venti = experiment: Test Example 5: herbicidal effect by foliage application, plastic box (symbol L); details: 320 g/ha, 3 weeks after application
# Method in brief: as §2
# Abutilon theophrasti = experiment: Test Example 5: herbicidal effect by foliage application, plastic box (symbol M); details: 320 g/ha, 3 weeks after application
# Method in brief: as §2
# rice plant = experiment: Test Example 5: effect on crop by foliage application, plastic box (symbol b); details: 320 g/ha, 3 weeks after application
# Method in brief: (§3)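 Box culture: sterile diluvial soil, seeds spot-sown, ~1.5 cm cover, raised under glass at 25–30° C.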
# rapeseed = experiment: Test Example 5: effect on crop by foliage application, plastic box (symbol g); details: 320 g/ha, 3 weeks after application
# Method in brief: as §3
SMILES,"Herbicidal effect grade, C: Monochoria vaginalis (Monochoria vaginalis)","Herbicidal effect grade, B: Scirpus juncoides (Scirpus juncoides)","F: Digitaria ciliaris, herbicidal effect grade (Digitaria ciliaris)","H: Echinochloa crus-galli var. crus-galli, herbicidal effect grade [1]","P: Stellaria media, herbicidal effect grade (Stellaria media)","f: beet, effect on crop grade (beet)","H: Echinochloa crus-galli var. crus-galli, herbicidal effect grade [2]","J: Alopecurus myosuroides, herbicidal effect grade (Alopecurus myosuroides)","L: Apera spica-venti, herbicidal effect grade (Apera spica-venti)","M: Abutilon theophrasti, herbicidal effect grade (Abutilon theophrasti)","b: directly sowed rice plant, effect on crop grade (rice plant)","g: rapeseed, effect on crop grade (rapeseed)"
CCOC(=O)C(C(=O)c1ccccc1)C1CC(O)=C(c2c(C)cc(C)cc2C)C1=O (stereo not drawn) [2-008],0 (Herbicidal ratio of 5% or lower (almost no effect)),0 (Herbicidal ratio of 5% or lower (almost no effect)),0 (Herbicidal ratio of 5% or lower (almost no effect)),0 (Herbicidal ratio of 5% or lower (almost no effect)),0 (Herbicidal ratio of 5% or lower (almost no effect)),0 (Herbicidal ratio of 5% or lower (almost no effect)),3 (Herbicidal ratio of 40% or higher and lower than 70%),3 (Herbicidal ratio of 40% or higher and lower than 70%),0 (Herbicidal ratio of 5% or lower (almost no effect)),0 (Herbicidal ratio of 5% or lower (almost no effect)),4 (Herbicidal ratio of 70% or higher and lower than 90%),3 (Herbicidal ratio of 40% or higher and lower than 70%)
CCOC(=O)C(C(=O)C(C)C)C1CC(O)=C(c2c(C)cc(C)cc2C)C1=O (stereo not drawn) [2-009],0 (Herbicidal ratio of 5% or lower (almost no effect)),0 (Herbicidal ratio of 5% or lower (almost no effect)),2 (Herbicidal ratio of 20% or higher and lower than 40%),1 (Herbicidal ratio of 5% or higher and lower than 20%),0 (Herbicidal ratio of 5% or lower (almost no effect)),0 (Herbicidal ratio of 5% or lower (almost no effect)),3 (Herbicidal ratio of 40% or higher and lower than 70%),1 (Herbicidal ratio of 5% or higher and lower than 20%),0 (Herbicidal ratio of 5% or lower (almost no effect)),0 (Herbicidal ratio of 5% or lower (almost no effect)),4 (Herbicidal ratio of 70% or higher and lower than 90%),0 (Herbicidal ratio of 5% or lower (almost no effect))
CCOC(=O)C(C(=O)C(F)(F)F)C1CC(O)=C(c2c(C)cc(C)cc2C)C1=O (stereo not drawn) [2-010],0 (Herbicidal ratio of 5% or lower (almost no effect)),0 (Herbicidal ratio of 5% or lower (almost no effect)),0 (Herbicidal ratio of 5% or lower (almost no effect)),0 (Herbicidal ratio of 5% or lower (almost no effect)),0 (Herbicidal ratio of 5% or lower (almost no effect)),0 (Herbicidal ratio of 5% or lower (almost no effect)),0 (Herbicidal ratio of 5% or lower (almost no effect)),0 (Herbicidal ratio of 5% or lower (almost no effect)),0 (Herbicidal ratio of 5% or lower (almost no effect)),0 (Herbicidal ratio of 5% or lower (almost no effect)),0 (Herbicidal ratio of 5% or lower (almost no effect)),0 (Herbicidal ratio of 5% or lower (almost no effect))
CCOC(=O)C(C(=O)Cc1ccccc1)C1CC(O)=C(c2c(C)cc(C)cc2C)C1=O (stereo not drawn) [2-011],0 (Herbicidal ratio of 5% or lower (almost no effect)),0 (Herbicidal ratio of 5% or lower (almost no effect)),0 (Herbicidal ratio of 5% or lower (almost no effect)),0 (Herbicidal ratio of 5% or lower (almost no effect)),0 (Herbicidal ratio of 5% or lower (almost no effect)),0 (Herbicidal ratio of 5% or lower (almost no effect)),2 (Herbicidal ratio of 20% or higher and lower than 40%),1 (Herbicidal ratio of 5% or higher and lower than 20%),0 (Herbicidal ratio of 5% or lower (almost no effect)),0 (Herbicidal ratio of 5% or lower (almost no effect)),3 (Herbicidal ratio of 40% or higher and lower than 70%),0 (Herbicidal ratio of 5% or lower (almost no effect))
CCOC(=O)C(CC)(C(C)=O)C1CC(O)=C(c2c(C)cc(C)cc2C)C1=O (stereo not drawn) [2-012],0 (Herbicidal ratio of 5% or lower (almost no effect)),0 (Herbicidal ratio of 5% or lower (almost no effect)),0 (Herbicidal ratio of 5% or lower (almost no effect)),0 (Herbicidal ratio of 5% or lower (almost no effect)),0 (Herbicidal ratio of 5% or lower (almost no effect)),0 (Herbicidal ratio of 5% or lower (almost no effect)),1 (Herbicidal ratio of 5% or higher and lower than 20%),1 (Herbicidal ratio of 5% or higher and lower than 20%),0 (Herbicidal ratio of 5% or lower (almost no effect)),0 (Herbicidal ratio of 5% or lower (almost no effect)),4 (Herbicidal ratio of 70% or higher and lower than 90%),0 (Herbicidal ratio of 5% or lower (almost no effect))
CCOC(=O)C(C(=O)c1ccccn1)C1CC(O)=C(c2c(C)cc(C)cc2C)C1=O (stereo not drawn) [2-013],0 (Herbicidal ratio of 5% or lower (almost no effect)),0 (Herbicidal ratio of 5% or lower (almost no effect)),1 (Herbicidal ratio of 5% or higher and lower than 20%),1 (Herbicidal ratio of 5% or higher and lower than 20%),0 (Herbicidal ratio of 5% or lower (almost no effect)),0 (Herbicidal ratio of 5% or lower (almost no effect)),5 (Herbicidal ratio of 90% or more (almost completely withered)),5 (Herbicidal ratio of 90% or more (almost completely withered)),4 (Herbicidal ratio of 70% or higher and lower than 90%),0 (Herbicidal ratio of 5% or lower (almost no effect)),5 (Herbicidal ratio of 90% or more (almost completely withered)),4 (Herbicidal ratio of 70% or higher and lower than 90%)
